Source: EP3045469A1, “POLYMYXIN DERIVATIVE AND USES THEREOF” (priority 2015, dated 2016)
Read-outs that look alike come from different tables or passages of the source.

How the values were obtained:
[1] = rats; cited from earlier work
Escherichia coli C175-94 = assay: Murine urinary infection efficacy study; type: in vivo
Procedure: The study used 64 outbred, OF-1 female mice (Charles River, France) weighing 28 -32 grams and Escherichia coli C175-94 (serotype O8:K48:H4), a clinical isolate elaborating type 1fimbriae. The peptides were NAB815 (Lot 1054308) and polymyxin B (Sigma-Aldrich, batch BCBF8382V). The study was performed by Statens Serum Institut, Copenhagen, Denmark.
Three days before the start of the study and during the study, the mice had free access to 5% glucose as drinking water.
On day 0, the urine was removed from the bladder by gently pressing the abdomen, Thereafter, the mouse was anaesthetized with approximately 0.15 ml of Zoletil mix s.c. A syringe with polyethylene catheter (Becton Dickison) containing the bacterial suspension was inserted via the urethra into the bladder and 50 µl of the bacterial inoculum was slowly injected into the bladder. Hereafter, the mouse was left in the cage. Mice were kept in a warming cabinet and were under surveillance until fully awake.
After measuring the colony forming units (CFUs), the inoculum was determined to contain 9.38 log10 CFU/ml, corresponding to 8.08 log10 CFU/mouse.
On day 1 and on day 2 postinfection, the mice were treated subcutaneously with solutions (0.2 ml) containing NAB815, polymyxin B or vehicle (0.9% NaCl) twice a day. The treatment groups (six mice in each) were the following: vehicle control; NAB815, 0.25 mg/kg/dose; NAB815, 0.5 mg/kg/dose; NAB815, 1 mg/kg/dose; NAB815, 2 mg/kg/dose; polymyxin B, 0.25 mg/kg/dose; polymyxin B, 0.5 mg/kg/dose; polymyxin B, 1 mg/kg/dose; and polymyxin B, 2 mg/kg/dose. In addition, one group served as a pretreatment control to help to assess as how the infection has proceeded before the start of the treatment on day 1 postinfection.
On days 1, 2 and 3 postinfection urine was sampled for colony counts. On day 1 postinfection (pretreatment control group) and on day 3 postinfection (all the other groups) after the urine sample was taken, mice were sacrificed by cervical dislocation and bladder and kidneys were removed aseptically. The bladder and kidneys were stored at -80 °C and later homogenized in 0.5 and 1 ml saline, respectively.
CFUs in urine were determined immediately within 2-3 hours after sampling. Frozen organs were thawed and homogenized with steel beads on a tissue lyser. All samples, urine, kidney and bladder, were 10 fold diluted in saline and 20-µl spots were applied on blood agar plates in duplicates. In addition, undiluted samples of urine (2-100 µl depending on the amount of urine) were spread on a separate agar plate to determine the lowest possible detection level of the colony counts. All agar plates were incubated 18-22 h at 35 °C in ambient air.

K. pneumoniae JMI 27068 = assay: MIC assay (CLSI broth microdilution; checkerboard with rifampin); type: cell-based, Klebsiella pneumoniae; settings: in combination with rifampin (0.25 µg/mL), duplicate checkerboard assays; polymyxin-nonsusceptible strain
Procedure: (§1) Synergy studies were performed by using polymyxin derivatives in combination with rifampin, a model compound for such antibacterial agents that the intact outer membrane of Gram-negative bacteria acts as a permeability barrier.

A. baumannii CMI 417 = assay: as above; type: cell-based, Acinetobacter baumannii; settings: in combination with rifampin (0.25 µg/mL), duplicate checkerboard assays; polymyxin-nonsusceptible strain
Procedure: as §1

[2] = patients, in selected materials; cited from earlier work
[3] = monkeys; cited from earlier work
[4] = of all the 24 mice treated at 0.25-2 mg/kg/dose

Substance: Polymyxin B
- S-Crea and BUN response [1]: lack of response
- dose-response in the CFUs in the bladder and in the kidneys (Escherichia coli C175-94; mice, 0.25-2 mg/kg/dose subcutaneously twice a day): did not show any dose-response tendency
- CFU levels in urine, day 3 versus pretreatment control group on day 1 postinfection (Escherichia coli C175-94; mice, any dose group (0.25, 0.5, 1, 2 mg/kg/dose) subcutaneously twice a day): no significant differences
- number of mice with bacterial levels below the detection limit in the kidneys (Escherichia coli C175-94; [4]): 10
- number of mice with bacterial levels below the detection limit in the urine (Escherichia coli C175-94; [4]): 1
- MIC (K. pneumoniae JMI 27068): 1 µg/mL
- MIC (A. baumannii CMI 417): 1 µg/mL
- nephrotoxicity rate [2]: ≤ 55%
- S-Crea and BUN response [3]: elicited a rapid onset of S-Crea and BUN response
